{
  "source": "patent US9488641B2",
  "about": "“Multicellular system and method for multiparametric analysis” (Case Western Reserve University, priority 2012, dated 2016)",
  "key": {"[1]": {"system": "BAC1.2F5 macrophage cells", "assay": "Oxygen uptake by BAC1.2F5 macrophage cells measured with Pt microring electrode (pulse amperometry)", "assay_type": "cell-based, mouse", "description": "A CHI 1030 8-channel potentiostat (CH Instruments Inc., Austin, TZ) was used to perform all electrochemical experiments: Cyclic Voltammetry (CV) and Pulse Amperometry (PA). The experimental setup was placed inside a custom built Faraday cage which was equipped with an XYZ stage for manipulation of the devices and a custom built thermostat to maintain the temperature inside the Faraday cage at 25° C. A Scion camera was mounted on top of the Faraday cage to visual observation of the sensing unit of interest. The microfabricated Pt microring electrode was used as the working electrode of the electrochemical cell. An Ag/AgCl reference and a Pt counter electrode were used to complete the cell.\nLive mouse macrophage cells (BAC1.2F5) were used for cell experiments. Culture and disposal procedures of these cells are described by E1-Moatassim and Dubyak (el-Moatassim and Dubyak 1992) in detail.\nA 100 μL drop of cell medium with suspended cells (105 BAC 1.2F5 mouse macrophages/mL) was gently added to the buffer with a disposable plastic pipette on top of the chip ˜5 mm from the targeted sensing unit. A simple hydrodynamic manipulation technique previously developed in our laboratory (Yoshida, Tohda et al. 2003) was then used to precisely position the selected cell(s) inside the targeted microring electrode.\n˜500 μL of the required solution was added to the buffer using a disposable plastic pipette. The buffer was then homogenized by gentle circular movements induced by the same pipette for ˜10 seconds.\nContinuous measurement will lead to sustained depletion of oxygen near the electrode. When cells are positioned near the electrodes this depletion of oxygen may perturb oxygen dependent cellular processes by decreasing the local availability of oxygen. To mitigate this undesirable effect, a pulse amperometry (PA) protocol was implemented. In this protocol the electrode potential is maintained at +0.5 V where no oxygen reduction occurs, before stepping to −0.55 V at which oxygen is reduced. The length of both pulses was chosen to be 250 ms. This restricts the time of depletion of oxygen to the cathodic pulses by allowing for replenishment of oxygen during the anodic pulses. This protocol ensures a sampling rate of 2 Hz that can assess metabolic processes occurring on the seconds time scale. Current proportional to local oxygen concentration is recorded and averaged at the end of each cathodic pulse for 50 ms. This recording period is long enough to obtain a representative value while also minimizing interference by 60 Hz noise.\nTo confirm that the observed variations in oxygen concentration indicated by the MEMS device reflect physiological processes of the cell(s), we performed another experiment where the metabolic rate of the cell(s) was pharmacologically modulated. […]"}, "MCF7-R cells": {"system": "MCF7-R cells", "assay": "Oxygen concentration under MCF7-R model agar half spheroid measured with Au microdisc electrode array; pharmacological modulation of cellular oxygen consumption", "assay_type": "cell-based", "conditions": "for Measured O2 concentration (%) after NaN3: 100 μM NaN3, representative experiment; for Change of measured oxygen concentration after addition: 100 μm [sic] NaN3, 200 μm [sic] DNP", "description": "Confluent plates of MCF7-R cells ere trypsinized and collected in a sterile 1 mL vial. The cell density and the total number of cells in the vial were estimated by cell counting using a hematocytometer. The cells were spun down in a centrifuge and the supernant medium removed. […] The vial with the cell-agar mixture was constantly kept in water bath at 37° C. to prevent the agar from gelling. Tiny hemispherical droplets (800-1000 μm diameter) of this mixture were deposited onto a Teflon® sheet using 0.5-2.5 μL pipette (Eppendorf, Hauppauge, N.Y.) to obtain hemispherical multicellular model agar spheroids. The Teflon® sheet with the model agar half spheroids was incubated in culture medium used for MCF7-R cell culture at 37° C. in 5% CO2. Henceforth, model agar half spheroids will be referred to simply as half spheroids.\nThe Au microdisc electrodes were polished using a fine emery paper to expose fresh electrode surface before each experiment. The polished electrodes were rinsed with DI water and allowed to dry in air (˜1 hour) after which a thin (˜10 μm) layer (spacer) of cellulose acetate was deposited. The electrodes were pre-conditioned electrochemically prior to starting the half spheroid experiment by continuous cyclic voltammograms (CV) until a stable measurement was reached (at least 50 CVs). The electrodes were calibrated for oxygen reduction current in PBS at different oxygen concentrations prior to the half spheroid experiment (henceforth, referred to as pre-calibration). A half spheroid was positioned on top of the electrode array and the oxygen concentrations inside the spheroid interrogated by linear scan voltammetry (LSV). Oxygen reduction currents under the half spheroid were recorded for half an hour after which the viability of cells inside the half spheroid was checked by pharmacological modulation of cellular oxygen consumption by administering metabolic poisons—NaN3 and DNP. At the end of the experiment the spheroid was removed and current corresponding to ambient oxygen concentration was recorded. The spheroid experiment was followed by a post experiment calibration (henceforth, referred to as post-calibration) of the electrodes to check for electrode drift. The LSV data recorded during these experiments was post processed to extract oxygen concentration values under the spheroid.\nThe Teflon® sheet on which half spheroids are was is removed from the incubating medium. A half spheroid was carefully transferred onto the electrode array using a curved edge of a pair of tweezers such that the radial electrode array was aligned along a spheroid radius (FIG. 8E). The positioning was done under a 2× stereo microscope to ensure that the spheroid is resting on its flat (bottom) edge. After the agar spheroid was positioned at the desired location a drop of low gelling agarose made in PBS maintained in liquid form at 37° C. was dispensed onto the spheroid from the top to secure its position and prevent it from moving with convective flow. PBS was added to the measurement device reservoir immediately after the spheroid position was secured. The time taken to position the spheroid from the time the half spheroid Petri-dish was removed from the incubator to the time when oxygen measurement is started is less than 3 minutes. During this time the cells in the spheroid (except the outer most shell) were not directly exposed to air.\nDesired volumes of the NaN3, DNP and glucose solutions were gently added to the test solution using a disposable transfer pipettes. The solution was then homogenized by gentle circular movements induced by the same pipette for ˜10 s."}},
  "note": "Entries after “also recorded” stand apart in the source; their conditions may differ.",
  "data": [
    {"smiles": "C[C@@H]1O[C@@H](O[C@H]2C[C@@H](O)[C@]3(CO)[C@H]4[C@H](O)C[C@]5(C)[C@@H](C6=CC(=O)OC6)CC[C@]5(O)[C@@H]4CC[C@]3(O)C2)[C@H](O)[C@H](O)[C@H]1O", "note": "[ouabain]", "values": [
      {"measurement": "Current higher than that recorded before administration of ouabain", "setting": "[1]; cluster of 6 cells inside microring", "result": "~1.7", "unit": "nA"},
      {"measurement": "Stabilized electrode current after addition of ouabain", "setting": "[1]; cluster of 6 cells inside microring, ~7.1 nA before ouabain", "result": "~8.8", "unit": "nA"},
      {"measurement": "Oxygen concentration corresponding to stabilized current after ouabain", "setting": "[1]; cluster of 6 cells inside microring, ~9% before ouabain", "result": "~15", "unit": "%"},
      {"measurement": "Stationary local oxygen concentration immediately after administration of ouabain", "setting": "[1]; representative of 3 experiments", "result": "increase"}
    ]},
    {"smiles": "[N-]=[N+]=[N-]", "note": "[NaN3, sodium azide]", "values": [
      {"measurement": "Measured O2 concentration (%) after NaN3", "setting": "MCF7-R cells; electrode E1, 610 μm from the center of the spheroid (outside spheroid), 30% cell volume fraction half spheroid", "result": 15.9, "unit": "%"},
      {"measurement": "Measured O2 concentration (%) after NaN3", "setting": "MCF7-R cells; electrode E2, 470 μm from the center of the spheroid, 30% cell volume fraction half spheroid", "result": 14.3, "unit": "%"},
      {"measurement": "Measured O2 concentration (%) after NaN3", "setting": "MCF7-R cells; electrode E3, 370 μm from the center of the spheroid, 30% cell volume fraction half spheroid", "result": 10.8, "unit": "%"},
      {"measurement": "Measured O2 concentration (%) after NaN3", "setting": "MCF7-R cells; electrode E4, 270 μm from the center of the spheroid, 30% cell volume fraction half spheroid", "result": 9.9, "unit": "%"},
      {"measurement": "Measured O2 concentration (%) after NaN3", "setting": "MCF7-R cells; electrode E5, 180 μm from the center of the spheroid, 30% cell volume fraction half spheroid", "result": 9.6, "unit": "%"}
    ]},
    {"smiles": "O=C[C@H](O)[C@@H](O)[C@H](O)[C@H](O)CO", "note": "[D-Glucose]", "values": [
      {"measurement": "Change of measured oxygen concentration after addition of glucose to the PBS", "setting": "MCF7-R cells; 25 mM D-Glucose added to PBS after the glucose-deprivation increase (FIG. 35)", "result": "decrease"}
    ]},
    {"smiles": "O=[N+]([O-])c1ccc(O)c([N+](=O)[O-])c1", "note": "[DNP, 2,4 dinitrophenol]", "values": [
      {"measurement": "Change of measured oxygen concentration after addition", "setting": "MCF7-R cells; 15% cell volume fraction spheroid (FIG. 30)", "result": "decreases"},
      {"measurement": "Change of measured oxygen concentration after addition", "setting": "MCF7-R cells; 15% cell volume fraction spheroid with 5% ambient pO2 (FIG. 34)", "result": "decreases"},
      {"measurement": "Change of measured oxygen concentration after addition", "setting": "MCF7-R cells; 15% cell volume fraction spheroid with 10% ambient pO2 (FIG. 33)", "result": "decreases"},
      {"measurement": "Change of measured oxygen concentrations after addition", "setting": "MCF7-R cells; 30% cell volume fraction half spheroid, ~20% ambient O2, 100 μM sodium azide, then 200 μM DNP (final concentrations)", "result": "decreased rapidly; also recorded: decreases"},
      {"measurement": "Change of measured oxygen concentration after addition", "setting": "MCF7-R cells; 30% cell volume fraction spheroid as printed (FIG. 31), non-zero oxygen core", "result": "decreases"},
      {"measurement": "Oxygen consumption by the cells", "setting": "MCF7-R cells; MCF7-R cells in half spheroid, 100 μM NaN3, subsequent 200 μM DNP (final concentrations)", "result": "rapid increase"}
    ]}
  ]
}
